Source: patent US10287337B2 (priority 2015, dated 2019)
Like-named read-outs stand apart in the source and are kept apart here.

Tests used:
[1] = test system: electrocutaneous stimulation-induced facial pain in rats; experiment: Electrocutaneous stimulation-induced facial inflammatory pain model; format: in vivo, rat; settings: intranasal
Protocol: In humans electrocutaneous stimulation elicited vasodilatation in the cheek (Vassend and Knardahl, 2005). […] Baseline facial thermal thresholds of rats (Sprague-Dawley, male, 260-300 g) were assessed on the rats' depilated left cheek and then each rat received 1 hour of electrocutaneous facial stimulation using WPI ISOSTIM™ A320 (World Precision Instruments, 0.4 mA intensity, 10 ms duration, Is inter-pulse interval). 24 hr after stimulation (Day 1), each rat's thermal pain threshold mediated by A-delta fiber and C fiber were separately measured using a thermal nociception lamp (variable voltage regulator model: No. SC-3M) to evoke A-delta and C nerve fiber-mediated cheek withdrawal. […] Thermal thresholds were measured once every 0.5 hour for the first 3 hours post-I.N. dosing, and then 4, 5, and 6 hour post-I.N. dosing. Voltage regulator set to 90V for A-delta fiber testing and 45V for C fiber testing. Cutoff set at 6 seconds and 20 seconds for A-delta fiber and C fiber testing, respectively.

[2] = test system: UVB radiation-induced inflammatory pain in rat cheek; format: in vivo; settings: topical application 10 μM, 100 μL
Excerpt: Ultraviolet B (UVB) radiation causes cutaneous inflammation in humans and animals. One important clinical consequence of UVB-induced inflammation is causing hyperalgesia. Changes in thermal sensitivities in the area of primary UVB irradiation are well documented both in humans and in the animal models (Zhang et al., 2009). […] This model provides an experimental model of post radiation pain and can mimic one type of burn pain. To determine the magnitude of anti-inflammatory pain effects for a given drug transdermally delivered by way of microneedle delivery, the depilated rat's cheeks were exposed to an inflammatory dosage of Ultraviolet B radiation (Zhang et al., 2009).
With the skin of a rat's cheek was stretched, the circular (8 mm in diameter) fiberglass applicator of the UV Curing Device (Dymax Bluewave 200) was applied to the center of the rat's cheek. To produce an appropriate inflammation, a total dose of 1200 mJ/cm^2 UVB was administered to one rat cheek for 25 seconds. The same procedure was performed on the rat's contralateral cheek. Upon completion of UVB irradiation, all rats were returned to their home cages and were assessed for thermal pain between 24-48 hours later. […] The rats were lightly anesthetized with urethane (800 mg/kg, IP) and heat-induced withdrawal latencies of the cheeks (an indicator of C fiber stimulation responses) were measured. […] A sham control group (n=6) were only completely depilated and cleansed with ethanol wipes but without UVB challenge.
After removing patches, cheek withdrawal latencies induced by continuous and noxious heat were assessed at different time points from the end of the 20 minute treatment period up to 3 hours post treatment.
The patches were applied on the rat cheek for 20 minutes. After removing the patches, cheek withdrawal latencies induced by continuous and noxious heat were assessed at different time points up to 3 hours as described above.
(§1) After removing the patches, cheek withdrawal latencies induced by continuous and noxious heat were assessed at different time points up to 3 hours.
Accordingly, anti-inflammatory effects were examined 48 hours post-UVB and after the application of the patch. Twelve rats were subjected to UVB radiation (1200 mJ/cm^2). […] The patch was placed over the inflamed area for a period of 20 minutes. […] Sham control group rats (n=6) were completely depilated and cleansed with ethanol wipes but without any other treatment. The rats were returned to their home cages, and assessed for thermal pain responses 48 hours later. As usual, cheek withdrawal latencies in response to continuous and noxious heat were recorded over a 3-hour time period (hours 49-51 post-UVB).
as §1
After removing the patches, cheek withdrawal latencies induced by continuous and noxious heat were assessed at different time points from 20 minutes post administration up to 3 hours.
Because UVB-irradiation may increase skin permeability, a topical formulation, but not limited to the sample shown here, was made.

[3] = molecular target: T1, human calcitonin CGRP1 (CGRP1) membrane (Homo sapiens, UniProt O60894+Q16602); format: binding; settings: for binding affinity on CGRP receptors (in words): comparison between peptides
T1 construct: purchased Perkin Elmer (Waltham, Mass.)
T1 sequence (O60894 27-148): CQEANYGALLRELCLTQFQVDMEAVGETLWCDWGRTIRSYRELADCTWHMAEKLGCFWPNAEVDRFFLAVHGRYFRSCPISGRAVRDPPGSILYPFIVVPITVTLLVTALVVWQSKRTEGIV
T1 sequence (Q16602 23-461): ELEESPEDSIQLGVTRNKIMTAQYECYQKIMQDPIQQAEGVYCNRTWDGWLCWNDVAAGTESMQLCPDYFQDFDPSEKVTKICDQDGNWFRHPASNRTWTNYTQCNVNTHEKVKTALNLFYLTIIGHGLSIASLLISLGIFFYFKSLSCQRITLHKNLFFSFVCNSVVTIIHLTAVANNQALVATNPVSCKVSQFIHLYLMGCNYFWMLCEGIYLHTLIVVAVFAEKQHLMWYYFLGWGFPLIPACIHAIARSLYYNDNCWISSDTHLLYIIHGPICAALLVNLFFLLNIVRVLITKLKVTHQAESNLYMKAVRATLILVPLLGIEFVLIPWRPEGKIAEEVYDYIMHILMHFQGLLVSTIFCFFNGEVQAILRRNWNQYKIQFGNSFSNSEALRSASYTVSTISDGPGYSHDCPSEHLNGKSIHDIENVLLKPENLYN
Protocol: CGRP1 membrane was homogenized in the assay buffer (50 mM Tris-HCl pH 7.4, 5 mM MgCl2, 0.5% BSA, 0.05% Tween20). […] After 1 h of incubation, at room temperature, samples were filtered, using a Tomtec cell harvester, through glass fiber filters that had been presoaked in 0.05% polyethyleneimine and washed with the cold Tris buffer (50 mM Tris-HCl pH7.4). Filters were counted on a betaplate reader (Wallac).

[4] = test system: UVB radiation-induced inflammatory pain in rat cheek; format: in vivo; settings: topical application 10 μM, 100 μL, 2% propylene glycol, UVB-irradiated cheek
[5] = test system: tibial neuroma-induced neuropathic pain in rats; experiment: Tibial neuroma transposition model, neuroma tenderness; format: in vivo, rat; settings: injected into skin over neuroma site
Excerpt: Sprague Dawley rats (male, approximately 400 g) were undergone surgery as described by Dorsi et al., briefly, a 2-3 cm incision was made through the skin and subcutaneous fascia of the ventral surface of the pelvic leg extending from the tarsometatarsal joint to approximately 1 cm distal to the level of the stifle the nerve was isolated and the posterior tibial branch was ligated and then sharply transected approximately 2 mm distal to the ligature, as illustrated in FIG. 8A. After the medial skin incision closure, the rat was transferred to a recovery cage devoid of bedding and placed halfway upon a recirculating hot water pad until standing; once recovered, the rat was returned to its home cage and monitored daily for signs of pain and wound dehiscence.
The rats were allowed to recover from the surgical procedure before beginning behavioral testing to assess neuroma development. On post-operative days 7 and 14, rats were assessed for mechanical pain using the “up-down” method of Von Frey mechanical testing and direct mechanical stimulation of the neuroma (referred to as neuroma tenderness testing). Neuroma tenderness was tested by applying the 15 g filament to the neuroma site up to five times in a series with a three second break between applications; the series was completed and scored as a positive as soon as a positive withdrawal response is seen. […]

**Q.** Which “A-delta fiber-mediated pain withdrawal latencies vs vehicle (in words)” value ([1]; 1 μM) does the source give for “H-NFVPTNVGPFAF-NH2 [AFA-peptide 3, NH2-N-F-V-P-T-N-V-G-P-F-A-F-CONH2]” here?
**A.** significantly prolonged

**Q.** What about the “C-fiber-mediated pain withdrawal latencies vs vehicle (in words)” value ([1]; 1 μM) of the same substance?
**A.** even more substantial and significantly prolonged

**Q.** What about the “thermal pain thresholds in naïve, non-facial stimulation rats (in words)” value ([1]; data not shown) of the same substance?
**A.** did not alter thermal pain thresholds

**Q.** What about the duration of action [2] of the same substance?
**A.** 2 h

**Q.** What about the “C-fiber-mediated thermal pain thresholds vs vehicle (in words)” value ([2]; 2% propylene glycol, UVB-irradiated cheek) of the same substance?
**A.** significant and substantial increase

**Q.** What about the Hill slope ([3]; 0.24 nM [125I]-CGRP, Mean±SD) of the same substance?
**A.** 1.20 ± 0.02

**Q.** And the “binding affinity on CGRP receptors (in words)” value [3]?
**A.** higher affinities than conventional CGRP 27-37 and CGRP 8-37

**Q.** What about the “binding affinity on CGRP receptors (in words)” value ([3]; listed as Peptide-3) of the same substance?
**A.** most potent in binding assay

**Q.** What about the “A-delta-fiber-mediated responses (in words)” value [4] of the same substance?
**A.** little effects

**Q.** And the “duration of analgesic effect” value [5]?
**A.** 3 to 4 h

**Q.** What about the “neuroma tenderness (in words)” value ([5]; 0.3 and 1 μM, 50 μL) of the same substance?
**A.** reduced neuroma tenderness in dose-related manner
